According to publication PMC5175178, “Development of an in-vivo active reversible butyrylcholinesterase inhibitor” (Scientific Reports, 2016):
Where two headings read alike, the source gives them in different places.

Assays:
huBChE = molecular target: T1, huBChE (Homo sapiens, UniProt P06276); format: biochemical; settings: for IC50: head prints no unit, nM, read-out: IC50 ±SEM huBChE
T1 construct: made in house
Experimental: (§1) The inhibitory potencies of the compounds against the ChEs were determined using the method of Ellman[32].
(§2) The enzyme solutions were prepared by dilution of the concentrated stocks in phosphate-buffered solution (0.1 M, pH 8.0). […] The reactions were started by addition of the substrate, at room temperature. The final content of the organic solvent (DMSO) was always 1%. […] To determine the blank value (b), phosphate-buffered solution replaced the enzyme solution. The initial velocity (v0) was calculated from the slope of the linear trend obtained, with each measurement carried out in triplicate. […] The compounds were added to each well at a final concentration of 10 μM. […] The initial velocities in the presence of the test compounds (vi) were calculated. The inhibitory potencies are expressed as the residual activities (RA = (vi – b) / (vo – b)). […] The IC50 values were obtained by plotting the residual enzyme activities against the applied inhibitor concentrations, with the experimental data fitted to Equation (1):
(§3) where X is the logarithm of the inhibitor concentration, and Y is the residual activity. For the fitting procedure, the Gnuplot software and an in-house python script were used.

mAChE = molecular target: T2, mAChE (Mus musculus, UniProt P21836); assay: In-vitro inhibitory activity against mAChE, method of Ellman; format: biochemical, murine
T2 construct: donated by Florian Nachon (IBS, Grenoble)
T2 sequence (P21836 32-614): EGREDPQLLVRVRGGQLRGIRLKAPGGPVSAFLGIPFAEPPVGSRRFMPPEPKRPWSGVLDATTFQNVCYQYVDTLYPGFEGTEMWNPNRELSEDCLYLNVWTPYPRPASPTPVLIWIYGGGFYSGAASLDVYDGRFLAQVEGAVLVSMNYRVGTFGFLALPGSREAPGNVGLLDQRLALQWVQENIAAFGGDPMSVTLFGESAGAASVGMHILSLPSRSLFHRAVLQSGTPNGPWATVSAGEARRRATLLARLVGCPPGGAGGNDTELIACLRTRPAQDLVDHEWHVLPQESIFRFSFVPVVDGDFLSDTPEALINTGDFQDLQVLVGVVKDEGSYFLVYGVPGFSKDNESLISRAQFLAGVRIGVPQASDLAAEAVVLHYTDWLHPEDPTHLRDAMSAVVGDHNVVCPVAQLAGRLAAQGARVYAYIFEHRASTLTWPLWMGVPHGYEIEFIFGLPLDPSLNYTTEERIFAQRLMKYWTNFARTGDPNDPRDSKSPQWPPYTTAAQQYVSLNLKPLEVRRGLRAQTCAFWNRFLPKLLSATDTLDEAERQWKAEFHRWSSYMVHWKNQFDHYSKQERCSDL
Experimental: as §1, §2, §3

[1] = residual activity at 10 μM, Table 1
[2] = residual activity at 10 μM, %RA > 75% was considered as no inhibition, Table 1
[3] = residual activity at 10 µM, %RA >75% was considered no inhibition, Supplementary Table 1

T1 sequence (P06276 29-602): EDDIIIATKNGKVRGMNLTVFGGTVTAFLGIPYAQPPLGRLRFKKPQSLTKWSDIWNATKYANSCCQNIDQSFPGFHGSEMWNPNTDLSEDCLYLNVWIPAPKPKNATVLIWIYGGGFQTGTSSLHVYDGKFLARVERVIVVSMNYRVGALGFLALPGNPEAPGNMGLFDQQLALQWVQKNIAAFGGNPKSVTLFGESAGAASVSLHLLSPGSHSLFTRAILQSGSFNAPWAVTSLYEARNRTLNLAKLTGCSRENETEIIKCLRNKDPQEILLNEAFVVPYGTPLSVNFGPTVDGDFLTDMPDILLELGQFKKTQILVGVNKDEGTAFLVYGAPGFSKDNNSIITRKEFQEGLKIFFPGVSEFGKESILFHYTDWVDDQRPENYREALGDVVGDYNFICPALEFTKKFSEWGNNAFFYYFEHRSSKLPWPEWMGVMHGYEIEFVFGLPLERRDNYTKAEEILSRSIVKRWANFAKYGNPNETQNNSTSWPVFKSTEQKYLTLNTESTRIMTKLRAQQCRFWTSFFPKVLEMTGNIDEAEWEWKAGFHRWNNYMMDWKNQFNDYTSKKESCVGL

Row | Compound | %RA at 10 µM ±SEM mAChE (mAChE; [3]) | IC50 (huBChE; Supplementary Table 1) | further results
1 | COCCN(CC1CCCN(C2Cc3ccccc3C2)C1)S(=O)(=O)c1ccc2ccccc2c1 (racemic) [compound 3, (±)-N-((1-(2,3-dihydro-1H-inden-2-yl)piperidin-3-yl)methyl)-N-(2-methoxyethyl)naphthalene-2-sulfonamide] | 72% ±1% | – | %RA at 10μM ± SEM huBChE (huBChE; [1]): 1.47% ± 1.54%; %RA at 10 µM ±SEM mAChE (mAChE; [2]): 72% ± 1%
2 | COCCN(CC1CCCN(C2Cc3ccccc3C2)C1)S(=O)(=O)c1cccc(N)c1 (racemic) [compound 4, (±)-3-amino-N-((1-(2,3-dihydro-1H-inden-2-yl)piperidin-3-yl)methyl)-N-(2-methoxyethyl)benzenesulfonamide] | 90% ±0.003% | – | %RA at 10μM ± SEM huBChE (huBChE; [1]): 2.34% ± 0.13%; %RA at 10 µM ±SEM mAChE (mAChE; [2]): 90% ± 0.003%
3 | COCCCN(CC1CCCN(Cc2ccccc2)C1)S(=O)(=O)c1ccc2ccccc2c1 (racemic) [compound 5, (±)-N-((1-benzylpiperidin-3-yl)methyl)-N-(3-methoxypropyl)naphthalene-2-sulfonamide] | 95% ±5% | – | %RA at 10μM ± SEM huBChE (huBChE; [1]): 0.71% ± 0.66%; %RA at 10 µM ±SEM mAChE (mAChE; [2]): 95% ± 5%
4 | O=S(=O)(NCC1CCCN(Cc2ccccc2)C1)c1ccc2ccccc2c1 (racemic) [compound 7, (±)-N-((1-benzylpiperidin-3-yl)methyl)naphthalene-2-sulfonamide] | 78% ±3% | – | –
5 | CN(CC1CCCN(Cc2ccccc2)C1)S(=O)(=O)c1ccc2ccccc2c1 (racemic) [compound 8, (±)-N-((1-benzylpiperidin-3-yl)methyl)-N-methylnaphthalene-2-sulfonamide] | 82% ±1% | – | –
6 | COCCN(CC1CCCN(C2Cc3ccccc3C2)C1)S(=O)(=O)c1cccc([N+](=O)[O-])c1 (racemic) [compound 13, (±)-N-((1-(2,3-dihydro-1H-inden-2-yl)piperidin-3-yl)methyl)-N-(2-methoxyethyl)-3-nitrobenzenesulfonamide] | – | 3610 ± 528 nM | –
7 | COCCN(CC1CCCN(C2Cc3ccccc3C2)C1)S(=O)(=O)c1ccccc1 (racemic) [compound 16, (±)-N-((1-(2,3-dihydro-1H-inden-2-yl)piperidin-3-yl)methyl)-N-(2-methoxyethyl)benzenesulfonamide] | 97% ±4% | 343 ± 5 nM | –
8 | COCCN(CC1CCCN(C2Cc3ccccc3C2)C1)S(=O)(=O)c1ccc(C)cc1 (racemic) [compound 17, (±)-N-((1-(2,3-dihydro-1H-inden-2-yl)piperidin-3-yl)methyl)-N-(2-methoxyethyl)-4-methylbenzenesulfonamide] | 86% ±3% | 279 ± 8 nM | –
9 | COCCN(CC1CCCN(C2Cc3ccccc3C2)C1)S(=O)(=O)c1ccc(F)cc1 (racemic) [compound 18, (±)-N-((1-(2,3-dihydro-1H-inden-2-yl)piperidin-3-yl)methyl)-4-fluoro-N-(2-methoxyethyl)benzenesulfonamide] | 88% ±2% | 887 ± 80 nM | –
10 | COCCN(CC1CCCN(C2Cc3ccccc3C2)C1)S(=O)(=O)c1ccc(OC)cc1 (racemic) [compound 19, (±)-N-((1-(2,3-dihydro-1H-inden-2-yl)piperidin-3-yl)methyl)-4-methoxy-N-(2-methoxyethyl)benzenesulfonamide] | 87% ±7% | 482 ± 66 nM | –
11 | COCCN(CC1CCCN(C2Cc3ccccc3C2)C1)S(=O)(=O)c1ccc([N+](=O)[O-])cc1 (racemic) [compound 20, (±)-N-((1-(2,3-dihydro-1H-inden-2-yl)piperidin-3-yl)methyl)-N-(2-methoxyethyl)-4-nitrobenzenesulfonamide] | 91% ±1% | 3470 ± 52 nM | –
12 | COCCN(CC1CCCN(C2Cc3ccccc3C2)C1)S(=O)(=O)c1ccccc1C(=O)OC (racemic) [compound 21, (±)-methyl 2-(N-((1-(2,3-dihydro-1H-inden-2-yl)piperidin-3-yl)methyl)-N-(2-methoxyethyl)sulfamoyl)benzoate] | 94% ±0.001% | 359 ± 18 nM | –
13 | COCCN(CC1CCCN(C2Cc3ccccc3C2)C1)S(=O)(=O)c1ccc(N)cc1 (racemic) [compound 22, (±)-4-amino-N-((1-(2,3-dihydro-1H-inden-2-yl)piperidin-3-yl)methyl)-N-(2-methoxyethyl)benzenesulfonamide] | 91% ±1% | 314 ± 36 nM | –
14 | COCCN(CC1CCCN(C2Cc3ccccc3C2)C1)S(=O)(=O)c1ccc(NC(C)=O)cc1 (racemic) [compound 23, (±)-N-(4-(N-((1-(2,3-dihydro-1H-inden-2-yl)piperidin-3-yl)methyl)-N-(2-methoxyethyl)sulfamoyl)phenyl)acetamide] | 85% ±5% | 321 ± 35 nM | –
15 | COCCN(CC1CCCN(C2Cc3ccccc3C2)C1)S(=O)(=O)c1cccc(NC(C)=O)c1 (racemic) [compound 24, (±)-N-(3-(N-((1-(2,3-dihydro-1H-inden-2-yl)piperidin-3-yl)methyl)-N-(2-methoxyethyl)sulfamoyl)phenyl)acetamide] | 95% ±4% | 8210 ± 601 nM | –
16 | CNC(=O)c1ccccc1S(=O)(=O)N(CCOC)CC1CCCN(C2Cc3ccccc3C2)C1 (racemic) [compound 25, (±)-2-(N-((1-(2,3-dihydro-1H-inden-2-yl)piperidin-3-yl)methyl)-N-(2-methoxyethyl)sulfamoyl)-N-methylbenzamide] | 101% ±4% | 3220 ± 492 nM | –
17 | COCCN(CC1CCCN(Cc2ccc(F)cc2)C1)S(=O)(=O)c1ccc2ccccc2c1 (racemic) [compound 37, (±)-N-((1-(4-fluorobenzyl)piperidin-3-yl)methyl)-N-(2-methoxyethyl)naphthalene-2-sulfonamide] | 89% ±3% | 23.1 ± 6 nM | –
18 | COCCN(CC1CCCN(Cc2cccc(F)c2)C1)S(=O)(=O)c1ccc2ccccc2c1 (racemic) [compound 38, (±)-N-((1-(3-fluorobenzyl)piperidin-3-yl)methyl)-N-(2-methoxyethyl)naphthalene-2-sulfonamide] | 99% ±0.001% | 49.1 ± 1.2 nM | –
19 | COCCN(CC1CCCN(Cc2ccc(C#N)cc2)C1)S(=O)(=O)c1ccc2ccccc2c1 (racemic) [compound 39, (±)-N-((1-(4-cyanobenzyl)piperidin-3-yl)methyl)-N-(2-methoxyethyl)naphthalene-2-sulfonamide] | 97% ±2% | 1460 ± 115 nM | –
20 | COCCN(CC1CCCN(Cc2cccc(C#N)c2)C1)S(=O)(=O)c1ccc2ccccc2c1 (racemic) [compound 40, (±)-N-((1-(3-cyanobenzyl)piperidin-3-yl)methyl)-N-(2-methoxyethyl)naphthalene-2-sulfonamide] | 93% ±3% | 338 ± 8 nM | –
21 | COCCN(CC1CCCN(Cc2ccc(N(C)C)cc2)C1)S(=O)(=O)c1ccc2ccccc2c1 (racemic) [compound 41, (±)-N-((1-(4-(dimethylamino)benzyl)piperidin-3-yl)methyl)-N-(2-methoxyethyl)naphthalene-2-sulfonamide] | 105% ±6% | 311 ± 22 nM | –
22 | O=S(=O)(NCC1CCCN(c2nc3ccccc3s2)C1)c1ccc2ccccc2c1 (racemic) [compound 71, (±)-N-((1-(benzo[d]thiazol-2-yl)piperidin-3-yl)methyl)naphthalene-2-sulfonamide] | – | – | %RA at 10μM ± SEM huBChE (huBChE; residual activity at 10 µM, Supplementary Table 1): 30% ±2%
23 | CN(CC1CCCN(Cc2ccc(F)cc2)C1)S(=O)(=O)c1ccc2ccccc2c1 (racemic) [compound 72, (±)-N-((1-(4-fluorobenzyl)piperidin-3-yl)methyl)-N-methylnaphthalene-2-sulfonamide] | 96% ±2% | – | –
24 | COCCN(CC1CCCN(C2Cc3ccccc3C2)C1)C(=O)c1ccc2ccccc2c1 (stereo not shown) [compound 1, reference compound] | – | – | IC50 (mAChE; Table 1, read-out: IC50 (nM) ± SEM mAChE): 102000 ± 2500 nM
25 | COCCN(CC1CCN(Cc2ccccc2)CC1)S(=O)(=O)c1ccc2ccccc2c1 [compound 75, N-((1-benzylpiperidin-4-yl)methyl)-N-(2-methoxyethyl)naphthalene-2-sulfonamide] | 98% ±1% | – | –
26 | COCCN(CC1CCN(C2Cc3ccccc3C2)CC1)S(=O)(=O)c1ccc2ccccc2c1 [compound 84, N-((1-(2,3-dihydro-1H-inden-2-yl)piperidin-4-yl)methyl)-N-(2-methoxyethyl)naphthalene-2-sulfonamide] | 87% ±3% | – | –
27 | COCCCN(CC1CCN(C2Cc3ccccc3C2)CC1)S(=O)(=O)c1ccc2ccccc2c1 [compound 85, N-((1-(2,3-dihydro-1H-inden-2-yl)piperidin-4-yl)methyl)-N-(3-methoxypropyl)naphthalene-2-sulfonamide] | 86% ±0.004% | – | –
28 | O=S(=O)(NCC1CCN(Cc2ccccc2)CC1)c1ccc2ccccc2c1 [compound 86, N-((1-benzylpiperidin-4-yl)methyl)naphthalene-2-sulfonamide] | – | – | IC50 (mAChE): 1780 ± 85 nM
